Test results as given in patent publication US12559529B2, “NPY2 receptor agonists” (Boehringer Ingelheim International GmbH, priority 2019, dated 2026).
*1 amine or outer side, *2 acyl side, *3 side chain or, on linkers, in order; H or OH if unused. Where a SMILES comes first, the peptide text is derived from it. Side-chain parts run from the residue outwards. The star is where a group is joined. C18 diacid = O=C(O)CCCCCCCCCCCCCCCCC(=O)*; γGlu = O=C(O)[C@H](CCC(=O)[*:2])N[*:1]; Isovaleryl = CC(C)CC(=O)*; AEEA = NCCOCCOCC(=O)O

biological target: T1, Human Neuropeptide Y2 Receptor (Homo sapiens, UniProt P49146); test: Radioligand binding competition assay (RLB); conditions: Table 3; human 125I-PYY (1-36) 0.02 nM, Y2 receptor membranes; read-out: Ki
T1 construct: purchased CHEMICON HTS066M
T1 sequence (P49146 1-381): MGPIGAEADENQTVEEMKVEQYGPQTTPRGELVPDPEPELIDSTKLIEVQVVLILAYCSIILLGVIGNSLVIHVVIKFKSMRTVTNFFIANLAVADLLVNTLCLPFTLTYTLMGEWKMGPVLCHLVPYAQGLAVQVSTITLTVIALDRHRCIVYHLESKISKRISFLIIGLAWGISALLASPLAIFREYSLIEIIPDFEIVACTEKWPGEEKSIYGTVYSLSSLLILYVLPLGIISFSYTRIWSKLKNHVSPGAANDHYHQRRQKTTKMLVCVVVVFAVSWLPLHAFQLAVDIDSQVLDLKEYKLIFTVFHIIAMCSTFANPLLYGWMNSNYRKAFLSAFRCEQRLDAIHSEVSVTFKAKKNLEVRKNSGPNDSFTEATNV
How it was run: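 IC50 values come from nonlinear regression of sigmoidal dose-response curves of filter-bound radioactivity. Peptides competed with radioligand at human Y2 receptor membranes (0.5 μg protein/well) for 2 h at room temperature in pH 7.4 HEPES buffer containing Mg2+, Ca2+ and 0.2% ovalbumin.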

SMILES | Ki
CC(C)CC(=O)N[C@@H](C)C(=O)N1CCC[C@H]1C(=O)N[C@@H](CCC(=O)O)C(=O)N[C@@H](CCCCNC(=O)COCCOCCNC(=O)COCCOCCNC(=O)CC[C@H](NC(=O)CCCCCCCCCCCCCCCCC(=O)O)C(=O)O)C(=O)N1CCC[C@H]1C(=O)N[C@@H](CCC(=O)O)C(=O)N[C@@H](CCC(=O)O)C(=O)N[C@@H](C)C(=O)N[C@@H](C)C(=O)N[C@@H](CO)C(=O)N1CCC[C@H]1C(=O)N[C@@H](CCC(=O)O)C(=O)N[C@@H](CCC(=O)O)C(=O)N[C@@H](CC(C)C)C(=O)N[C@@H](CCC(N)=O)C(=O)N[C@@H](CCCNC(=N)N)C(=O)N[C@@H](Cc1ccc(O)cc1)C(=O)N[C@@H](Cc1ccc(O)cc1)C(=O)N[C@H](C(=O)N[C@@H](CO)C(=O)N[C@H](C(=O)N[C@@H](CCCNC(=N)N)C(=O)N[C@@H](Cc1c[nH]cn1)C(=O)N[C@@H](Cc1ccc(O)cc1)C(=O)N[C@@H](Cc1ccc(O)cc1)C(=O)N[C@@H](CC(N)=O)C(=O)N[C@@H](Cc1c[nH]c2ccccc12)C(=O)N[C@@H](CC(C)C)C(=O)N[C@H](C(=O)N[C@@H](CCCNC(=N)N)C(=O)N[C@@H](CCC(N)=O)C(=O)N[C@@H](CCCNC(=N)N)C(=O)N[C@@H](Cc1ccc(O)cc1)C(N)=O)[C@@H](C)O)[C@@H](C)O)C(C)C [Compound 42, N{alpha-4}-(3-methylbutanoyl)-N{epsilon-7}-[2-(2-{2-[2-(2-{2-[(4S)-4-carboxy-4-(17-carboxyheptadecanamido)butanamido]ethoxy}ethoxy)acetamido]ethoxy}ethoxy)acetamido]-[4A,7K,9E,11A,18Q,22V,24T,28Y,30W,31L]hPYY (4-36)] (Isovaleryl-APEK([AEEA-AEEA-γGlu-C18 diacid])PEEAASPEELQRYYVSTRHYYNWLTRQRY-NH2) | 5.92 nM
CC[C@H](C)[C@H](NC(=O)[C@H](Cc1c[nH]c2ccccc12)NC(=O)[C@H](CC(N)=O)NC(=O)[C@H](Cc1ccc(O)cc1)NC(=O)[C@H](Cc1ccc(O)cc1)NC(=O)[C@H](Cc1c[nH]cn1)NC(=O)[C@H](CCCNC(=N)N)NC(=O)[C@H](CC(C)C)NC(=O)[C@H](CO)NC(=O)[C@@H](NC(=O)[C@H](Cc1ccc(O)cc1)NC(=O)[C@H](Cc1ccc(O)cc1)NC(=O)[C@H](CCCNC(=N)N)NC(=O)[C@H](CCC(N)=O)NC(=O)[C@H](CC(C)C)NC(=O)[C@H](CCC(=O)O)NC(=O)[C@H](CCC(=O)O)NC(=O)[C@@H]1CCCN1C(=O)[C@H](CO)NC(=O)[C@H](C)NC(=O)[C@H](CCC(=O)O)NC(=O)[C@H](CCC(=O)O)NC(=O)[C@H](CCC(=O)O)NC(=O)[C@@H]1CCCN1C(=O)[C@H](CCCCNC(=O)COCCOCCNC(=O)COCCOCCNC(=O)CC[C@H](NC(=O)CCCCCCCCCCCCCCCCC(=O)O)C(=O)O)NC(=O)[C@H](CCC(=O)O)NC(=O)[C@@H]1CCCN1C(=O)[C@H](C)NC(=O)CC(C)C)C(C)C)C(=O)N[C@H](C(=O)N[C@@H](CCCNC(=N)N)C(=O)N[C@@H](CCC(N)=O)C(=O)N[C@@H](CCCNC(=N)N)C(=O)N[C@@H](Cc1ccc(O)cc1)C(N)=O)[C@@H](C)O [Compound 44, N{alpha-4}-(3-methylbutanoyl)-N{epsilon-7}-[2-(2-{2-[2-(2-{2-[(4S)-4-carboxy-4-(17-carboxyheptadecanamido)butanamido]ethoxy}ethoxy)acetamido]ethoxy}ethoxy)acetamido]-[4A,7K,9E,11E,18Q,22V,28Y,30W,31I]hPYY (4-36)] | 4.44 nM
CC(C)CC(=O)N[C@@H](C)C(=O)N1CCC[C@H]1C(=O)N[C@@H](CCC(=O)O)C(=O)N[C@@H](CCCCNC(=O)COCCOCCNC(=O)COCCOCCNC(=O)CC[C@H](NC(=O)CCCCCCCCCCCCCCCCC(=O)O)C(=O)O)C(=O)N1CCC[C@H]1C(=O)N[C@@H](CCC(=O)O)C(=O)N[C@@H](CCC(=O)O)C(=O)N[C@@H](CCC(=O)O)C(=O)N[C@@H](C)C(=O)N[C@@H](CO)C(=O)N1CCC[C@H]1C(=O)N[C@@H](CCC(=O)O)C(=O)N[C@@H](CO)C(=O)N[C@@H](CC(C)C)C(=O)N[C@@H](CCC(N)=O)C(=O)N[C@@H](CCCNC(=N)N)C(=O)N[C@@H](Cc1ccc(O)cc1)C(=O)N[C@@H](Cc1ccc(O)cc1)C(=O)N[C@H](C(=O)N[C@@H](CO)C(=O)N[C@@H](CC(C)C)C(=O)N[C@@H](CCCNC(=N)N)C(=O)N[C@@H](Cc1c[nH]cn1)C(=O)N[C@@H](Cc1ccc(O)cc1)C(=O)N[C@@H](Cc1ccc(O)cc1)C(=O)N[C@@H](CC(N)=O)C(=O)N[C@@H](Cc1c[nH]c2ccccc12)C(=O)N[C@@H](CC(C)C)C(=O)N[C@H](C(=O)N[C@@H](CCCNC(=N)N)C(=O)N[C@@H](CCC(N)=O)C(=O)N[C@@H](CCCNC(=N)N)C(=O)N[C@@H](Cc1ccc(O)cc1)C(N)=O)[C@@H](C)O)C(C)C [Compound 45, N{alpha-4}-(3-methylbutanoyl)-N{epsilon-7}-[2-(2-{2-[2-(2-{2-[(4S)-4-carboxy-4-(17-carboxyheptadecanamido)butanamido]ethoxy}ethoxy)acetamido]ethoxy}ethoxy)acetamido]-[4A,7K,9E,11E,16S,18Q,22V,28Y,30W,31L]hPYY (4-36)] (Isovaleryl-APEK([AEEA-AEEA-γGlu-C18 diacid])PEEEASPESLQRYYVSLRHYYNWLTRQRY-NH2) | 3.97 nM

Compounds with a lower Ki, results first:

Ki | SMILES
0.4 nM | CC(C)CC(=O)N[C@@H](C)C(=O)N1CCC[C@H]1C(=O)N[C@@H](CCC(=O)O)C(=O)N[C@@H](CCCCNC(=O)COCCOCCNC(=O)COCCOCCNC(=O)CC[C@H](NC(=O)CCCCCCCCCCCCCCCCC(=O)O)C(=O)O)C(=O)N1CCC[C@H]1C(=O)N[C@@H](CCC(=O)O)C(=O)N[C@@H](C)C(=O)N1CCC[C@H]1C(=O)N[C@@H](C)C(=O)N[C@@H](CO)C(=O)N1CCC[C@H]1C(=O)N[C@@H](CCC(=O)O)C(=O)N[C@@H](CCC(=O)O)C(=O)N[C@@H](CC(C)C)C(=O)N[C@@H](CCC(N)=O)C(=O)N[C@@H](CCCNC(=N)N)C(=O)N[C@@H](Cc1ccc(O)cc1)C(=O)N[C@@H](Cc1ccc(O)cc1)C(=O)N[C@H](C(=O)N[C@@H](CO)C(=O)N[C@@H](CC(C)C)C(=O)N[C@@H](CCCNC(=N)N)C(=O)N[C@@H](Cc1c[nH]cn1)C(=O)N[C@@H](Cc1ccc(O)cc1)C(=O)N[C@@H](Cc1ccc(O)cc1)C(=O)N[C@@H](CC(N)=O)C(=O)N[C@@H](Cc1c[nH]c2ccccc12)C(=O)N[C@@H](CC(C)C)C(=O)N[C@H](C(=O)N[C@@H](CCCNC(=N)N)C(=O)N[C@@H](CCC(N)=O)C(=O)N[C@@H](CCCNC(=N)N)C(=O)N[C@@H](Cc1ccc(O)cc1)C(N)=O)[C@@H](C)O)C(C)C [Compound 43, N{alpha-4}-(3-methylbutanoyl)-N{epsilon-7}-[2-(2-{2-[2-(2-{2-[(4S)-4-carboxy-4-(17-carboxyheptadecanamido)butanamido]ethoxy}ethoxy)acetamido]ethoxy}ethoxy)acetamido]-[4A,7K,9E,10A,11P,18Q,22V,28Y,30W,31L]hPYY (4-36)] (Isovaleryl-APEK([AEEA-AEEA-γGlu-C18 diacid])PEAPASPEELQRYYVSLRHYYNWLTRQRY-NH2)
0.42 nM | CC(C)CC(=O)N[C@@H](C)C(=O)N1CCC[C@H]1C(=O)N[C@@H](CCC(=O)O)C(=O)N[C@@H](CCCCNC(=O)COCCOCCNC(=O)COCCOCCNC(=O)CC[C@H](NC(=O)CCCCCCCCCCCCCCCCC(=O)O)C(=O)O)C(=O)N1CCC[C@H]1C(=O)N1CCC[C@H]1C(=O)N[C@@H](C)C(=O)N[C@@H](CC(=O)O)C(=O)N[C@@H](C)C(=O)N[C@@H](CO)C(=O)N1CCC[C@H]1C(=O)N[C@@H](CCC(=O)O)C(=O)N[C@@H](CCC(=O)O)C(=O)N[C@@H](CC(C)C)C(=O)N[C@@H](CCC(N)=O)C(=O)N[C@@H](CCCNC(=N)N)C(=O)N[C@@H](Cc1ccc(O)cc1)C(=O)N[C@@H](Cc1ccc(O)cc1)C(=O)N[C@H](C(=O)N[C@@H](CO)C(=O)N[C@@H](CC(C)C)C(=O)N[C@@H](CCCNC(=N)N)C(=O)N[C@@H](Cc1c[nH]cn1)C(=O)N[C@@H](Cc1ccc(O)cc1)C(=O)N[C@@H](Cc1ccc(O)cc1)C(=O)N[C@@H](CC(N)=O)C(=O)N[C@@H](Cc1c[nH]c2ccccc12)C(=O)N[C@@H](CC(C)C)C(=O)N[C@H](C(=O)N[C@@H](CCCNC(=N)N)C(=O)N[C@@H](CCC(N)=O)C(=O)N[C@@H](CCCNC(=N)N)C(=O)N[C@@H](Cc1ccc(O)cc1)C(N)=O)[C@@H](C)O)C(C)C [Compound 47, N{alpha-4}-(3-methylbutanoyl)-N{epsilon-7}-[2-(2-{2-[2-(2-{2-[(4S)-4-carboxy-4-(17-carboxyheptadecanamido)butanamido]ethoxy}ethoxy)acetamido]ethoxy}ethoxy)acetamido]-[4A,7K,9P,10A,18Q,22V,28Y,30W,31L]hPYY (4-36)]
